Results as given in paper PMC9326877 (Journal of Food and Drug Analysis, 2018).

Target: P-glycoprotein (P-gp) (Sus scrofa, UniProt K7GMM7)
Assay type: in vitro ADME, pig (Sus scrofa domesticus)
Settings: Landrace, pig

P-glycoprotein (P-gp), sequence (K7GMM7 1-1248): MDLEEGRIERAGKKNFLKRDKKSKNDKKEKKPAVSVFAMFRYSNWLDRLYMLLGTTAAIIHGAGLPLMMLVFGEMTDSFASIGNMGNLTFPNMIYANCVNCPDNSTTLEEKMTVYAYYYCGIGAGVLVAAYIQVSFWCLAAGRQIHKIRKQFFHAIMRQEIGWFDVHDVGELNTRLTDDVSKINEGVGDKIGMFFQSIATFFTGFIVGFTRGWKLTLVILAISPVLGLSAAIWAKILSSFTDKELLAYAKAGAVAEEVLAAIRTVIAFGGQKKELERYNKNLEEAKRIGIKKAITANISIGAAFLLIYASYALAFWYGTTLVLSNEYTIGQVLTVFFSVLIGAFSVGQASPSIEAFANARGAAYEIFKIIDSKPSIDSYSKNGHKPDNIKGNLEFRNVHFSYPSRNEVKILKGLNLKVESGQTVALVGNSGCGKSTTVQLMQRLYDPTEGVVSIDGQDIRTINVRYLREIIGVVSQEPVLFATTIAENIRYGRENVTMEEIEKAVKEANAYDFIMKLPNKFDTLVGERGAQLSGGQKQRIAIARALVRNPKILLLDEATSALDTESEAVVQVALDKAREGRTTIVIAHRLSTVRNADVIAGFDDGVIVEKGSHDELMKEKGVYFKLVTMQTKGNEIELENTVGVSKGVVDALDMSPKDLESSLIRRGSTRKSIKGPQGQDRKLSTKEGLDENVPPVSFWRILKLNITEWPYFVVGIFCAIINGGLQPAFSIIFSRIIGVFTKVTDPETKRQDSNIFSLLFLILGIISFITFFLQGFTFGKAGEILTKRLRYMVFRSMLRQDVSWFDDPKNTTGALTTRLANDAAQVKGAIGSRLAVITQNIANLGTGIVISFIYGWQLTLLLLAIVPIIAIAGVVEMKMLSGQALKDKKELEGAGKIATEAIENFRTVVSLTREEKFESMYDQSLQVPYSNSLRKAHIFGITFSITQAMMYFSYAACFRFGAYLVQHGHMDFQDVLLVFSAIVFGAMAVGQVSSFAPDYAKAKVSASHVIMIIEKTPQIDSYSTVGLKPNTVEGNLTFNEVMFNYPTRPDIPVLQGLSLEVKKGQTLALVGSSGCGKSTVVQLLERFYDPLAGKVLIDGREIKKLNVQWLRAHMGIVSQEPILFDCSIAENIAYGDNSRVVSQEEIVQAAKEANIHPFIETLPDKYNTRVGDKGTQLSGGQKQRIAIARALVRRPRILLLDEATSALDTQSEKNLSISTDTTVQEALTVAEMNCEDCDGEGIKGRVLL

efflux ratio at 120 min, 5 μM: 2.2
Structure (SMILES): COC(=O)c1ccccc1-c1c2ccc(=N)cc-2oc2cc(N)ccc12 [R123, Rhodamine 123]
